Experimental data: patent US6472348B1, “Pyridone derivatives and herbicides” (Kumiai Chemical Industry Co., Ltd., priority 1996, dated 2002)

Legend:
[1] = tested on: barnyardgrass (Ec); experiment: Test Example 1: herbicidal effects by paddy field soil treatment; type: in vivo; conditions: 100 g of the active ingredient per 10 ares, 21st day after the application, index 0-5 of Table 47;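 also: grade of growth control; 5 = at least 90%; 4 = 70 to 90%; 3 = 50 to 70%; 2 = 30 to 50%; 1 = 10 to 30%; 0 = under 10%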
Outline: (§1)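 Scoring of herbicidal effect came 21 days after application of 100 g active ingredient per 10 ares to flooded (3 cm) paddy-soil pots sown with barnyardgrass, monochoria and bulrush, kept in a greenhouse.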

[2] = tested on: bulrush (Sc); experiment: as above; type: in vivo; conditions: 100 g of the active ingredient per 10 ares, 21st day after the application, index 0-5 of Table 47;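 also: grade of growth control; 5 = at least 90%; 4 = 70 to 90%; 3 = 50 to 70%; 2 = 30 to 50%; 1 = 10 to 30%; 0 = under 10%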
Outline: as §1

[3] = tested on: monochoria (Mo); experiment: as above; type: in vivo; conditions: 100 g of the active ingredient per 10 ares, 21st day after the application, index 0-5 of Table 47;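 also: grade of growth control; 5 = at least 90%; 4 = 70 to 90%; 3 = 50 to 70%; 2 = 30 to 50%; 1 = 10 to 30%; 0 = under 10%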
Outline: as §1

[4] = tested on: Digitaria ciliaris (Di); experiment: Test Example 2: herbicidal effects by upland field soil treatment; type: in vivo; conditions: 100 g of the active ingredient per 10 ares, evaluated on the 21st day after application;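 also: grade of growth control; 5 = at least 90%; 4 = 70 to 90%; 3 = 50 to 70%; 2 = 30 to 50%; 1 = 10 to 30%; 0 = under 10%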
Description: (§2) (Test on Herbicidal Effects by Upland Field Soil Treatment)

[5] = tested on: barnyardgrass (Ec); experiment: as above; type: in vivo; conditions: 100 g of the active ingredient per 10 ares, evaluated on the 21st day after application
Description: as §2

[6] = tested on: common lambsquarters (Ch); experiment: as above; type: in vivo; conditions: 100 g of the active ingredient per 10 ares, evaluated on the 21st day after application
Description: as §2

[7] = tested on: pale smartweed (Po); experiment: as above; type: in vivo; conditions: 100 g of the active ingredient per 10 ares, evaluated on the 21st day after application
Description: as §2

[8] = tested on: rice flatsedge (Ci); experiment: as above; type: in vivo; conditions: 100 g of the active ingredient per 10 ares, evaluated on the 21st day after application
Description: as §2

[9] = tested on: slender amaranth (Am); experiment: as above; type: in vivo; conditions: 100 g of the active ingredient per 10 ares, evaluated on the 21st day after application
Description: as §2

[10] = tested on: Diaitaria ciliaris (Di); experiment: Test Example 3: herbicidal effects by upland field foliage treatment; type: in vivo; parameters: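 grade of growth control; 5 = at least 90%; 4 = 70 to 90%; 3 = 50 to 70%; 2 = 30 to 50%; 1 = 10 to 30%; 0 = under 10%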; conditions: 100 g active ingredient per 10 ares, evaluated 14th day after treatment
Outline: (§3)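 Weeds were sown in sand-filled pots (surface area: 120 cm^2), covered with soil and grown in a greenhouse for 2 weeks before foliar treatment. Plants then stayed in the greenhouse, and herbicidal effect was scored against graded standards on the 14th day after treatment.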

[11] = tested on: barnyardgrass (Ec); experiment: as above; type: in vivo; parameters: scale not given here; conditions: 100 g active ingredient per 10 ares, evaluated 14th day after treatment
Outline: as §3

[12] = tested on: common lambsquarters (Ch); experiment: as above; type: in vivo; parameters: scale not given here; conditions: 100 g active ingredient per 10 ares, evaluated 14th day after treatment
Outline: as §3

[13] = tested on: pale smartweed (Po); experiment: as above; type: in vivo; parameters: scale not given here; conditions: 100 g active ingredient per 10 ares, evaluated 14th day after treatment
Outline: as §3

[14] = tested on: rice flatsedge (Ci); experiment: as above; type: in vivo; parameters: scale not given here; conditions: 100 g active ingredient per 10 ares, evaluated 14th day after treatment
Outline: as §3

[15] = tested on: slender amaranth (Am); experiment: as above; type: in vivo; parameters: scale not given here; conditions: 100 g active ingredient per 10 ares, evaluated 14th day after treatment
Outline: as §3

[16] = tested on: cotton (Go); experiment: Test Example 4: crop plant selectivity by upland field soil treatment (cotton), phytotoxicity; type: in vivo; parameters: scale not given here; conditions: dose 6.3 g ai/10 a, evaluated 21st day after application
Outline: (§4)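 Seeds of cotton and several weed species were sown in sand-filled pots and covered with soil before soil treatment with the test compound. Plants were grown in a greenhouse, and herbicidal effect and crop phytotoxicity were scored against set standards 21 days after application.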

[17] = tested on: Diaitaria ciliaris (Di); experiment: Test Example 4: crop plant selectivity by upland field soil treatment (cotton), herbicidal effects; type: in vivo; conditions: dose 6.3 g ai/10 a, evaluated 21st day after application
Description: (§5) (Test on Crop Plant Selectivity by Upland Field Soil Treatment)
In a plastic pot (surface area: 600 cm^2) filled with sand, cotton (Go), Diaitaria ciliaris (Di), green foxtail (Se), pale smartweed (Po), slender amaranth (Am), common lambsquarters (Ch) and China jute (Ab) were sown and covered with soil. […] The plants were then cultured in a green house, and the evaluation of the herbicidal effects and phytotoxicity was conducted on the 21st day after the application in accordance with the standards as identified in Table 47. Symbol—represents “not tested”.

[18] = tested on: China jute (Ab); experiment: as above; type: in vivo; parameters: scale not given here; conditions: dose 6.3 g ai/10 a, evaluated 21st day after application
Outline: as §4

[19] = tested on: common lambsquarters (Ch); experiment: as above; type: in vivo; parameters: scale not given here; conditions: dose 6.3 g ai/10 a, evaluated 21st day after application
Outline: as §4

[20] = tested on: pale smartweed (Po); experiment: as above; type: in vivo; parameters: scale not given here; conditions: dose 6.3 g ai/10 a, evaluated 21st day after application
Outline: as §4

[21] = tested on: slender amaranth (Am); experiment: as above; type: in vivo; parameters: scale not given here; conditions: dose 6.3 g ai/10 a, evaluated 21st day after application
Outline: as §4

[22] = tested on: soybean (Gl); experiment: Test Example 6: crop plant selectivity by upland field soil treatment (soybean), phytotoxicity; type: in vivo; parameters: scale not given here; conditions: dose 6.3 g ai/10a, 21st day after application
Outline: (§6)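 Seeds are sown in sand and covered with soil. The soil is treated with test compound. Pots are kept in a greenhouse. Weed control and soybean damage are rated visually 21 days after application.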

[23] = tested on: Diaitaria ciliaris (Di); experiment: Test Example 6: crop plant selectivity by upland field soil treatment (soybean), herbicidal effects; type: in vivo; conditions: dose 6.3 g ai/10a, 21st day after application
Description: as §5
(§7) In a plastic pot (surface area: 600 cm^2) filled with sand, soybean (Gl), Diaitaria ciliaris (Di), green foxtail (Se), Johnsongrass (So), pale smartweed (Po), slender amaranth (Am), common lambsquarters (Ch) and China jute (Ab) were sown and covered with soil. […] The plants were then cultured in a green house, and the evaluation of the herbicidal effects and phytotoxicity was conducted on the 21st day after the application in accordance with the standards as identified in Table 47. Symbol—represents “not tested”.

[24] = tested on: Johnsongrass (So); experiment: as above; type: in vivo; conditions: dose 6.3 g ai/10a, 21st day after application
Description: as §5, §7

[25] = tested on: China jute (Ab); experiment: as above; type: in vivo; parameters: scale not given here; conditions: dose 6.3 g ai/10a, 21st day after application
Outline: as §6

[26] = tested on: common lambsquarters (Ch); experiment: as above; type: in vivo; parameters: scale not given here; conditions: dose 6.3 g ai/10a, 21st day after application
Outline: as §6

[27] = tested on: pale smartweed (Po); experiment: as above; type: in vivo; parameters: scale not given here; conditions: dose 6.3 g ai/10a, 21st day after application
Outline: as §6

[28] = tested on: slender amaranth (Am); experiment: as above; type: in vivo; parameters: scale not given here; conditions: dose 6.3 g ai/10a, 21st day after application
Outline: as §6

[29] = tested on: corn (Ze); experiment: Test Example 11: crop plant selectivity by upland field foliage treatment (corn), phytotoxicity; conditions: corn; foliage treatment; dose 1.6 g ai/10a; evaluated on 14th day after treatment; index per Table 47
Outline: (§8)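 Corn with pale smartweed, slender amaranth, common lambsquarters and China jute sown in sand-filled pots and grown 2 weeks in a greenhouse before foliage treatment. Herbicidal effect and crop phytotoxicity scored on day 14 after treatment against a rating standard.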

[30] = tested on: China jute (Ab); experiment: Test Example 11: crop plant selectivity by upland field foliage treatment (corn), herbicidal effects; type: in vivo; parameters: scale not given here; conditions: China jute; foliage treatment; dose 1.6 g ai/10a; evaluated on 14th day after treatment; index per Table 47
Outline: as §8

[31] = tested on: common lambsquarters (Ch); experiment: as above; type: in vivo; parameters: scale not given here; conditions: common lambsquarters; foliage treatment; dose 1.6 g ai/10a; evaluated on 14th day after treatment; index per Table 47
Outline: as §8

[32] = tested on: pale smartweed (Po); experiment: as above; type: in vivo; parameters: scale not given here; conditions: pale smartweed; foliage treatment; dose 1.6 g ai/10a; evaluated on 14th day after treatment; index per Table 47
Outline: as §8

[33] = tested on: slender amaranth (Am); experiment: as above; type: in vivo; parameters: scale not given here; conditions: slender amaranth; foliage treatment; dose 1.6 g ai/10a; evaluated on 14th day after treatment; index per Table 47
Outline: as §8

`C#CCOc1cc(-c2cn(C)c(C(F)(F)F)cc2=O)c(F)cc1Cl` [Compound 6-9] was tested, and the “Herbicidal effects Ec” value [1] was 5, the “Herbicidal effects Sc” value [2] was 5 and the “Herbicidal effects Mo” value [3] was 5. The “Herbicidal effects Di” value [4] was 5, the “Herbicidal effects Ec” value [5] was 5 and the “Herbicidal effects Ch” value [6] was 5. The “Herbicidal effects Po” value [7] was 5, the “Herbicidal effects Ci” value [8] was 5 and the “Herbicidal effects Am” value [9] was 5. The “Herbicidal effects Di” value [10] was 5, the “Herbicidal effects Ec” value [11] was 5 and the “Herbicidal effects Ch” value [12] was 5. The “Herbicidal effects Po” value [13] was 5, the “Herbicidal effects Ci” value [14] was 5 and the “Herbicidal effects Am” value [15] was 5. For the same compound, the “Phytotoxicity Go” value [16] was 0, the “Herbicidal effects Di” value [17] was 5 and the “Herbicidal effects Ab” value [18] was 5. For the same compound, the “Herbicidal effects Ch” value [19] was 5, the “Herbicidal effects Po” value [20] was 5 and the “Herbicidal effects Am” value [21] was 5. The “Phytotoxicity Gl” value [22] was 0, the “Herbicidal effects Di” value [23] was 5 and the “Herbicidal effects So” value [24] was 5. The “Herbicidal effects Ab” value [25] was 5, the “Herbicidal effects Ch” value [26] was 5 and the “Herbicidal effects Po” value [27] was 5. The “Herbicidal effects Am” value [28] was 5, the “Phytotoxicity Ze” value [29] was 1 and the “Herbicidal effects Ab” value [30] was 5. For the same compound, the “Herbicidal effects Ch” value [31] was 5, the “Herbicidal effects Po” value [32] was 5 and the “Herbicidal effects Am” value [33] was 5.
